Reference: paper PMC6070797 (Marine Drugs, 2018)

Assays:
[1] = target: T1, IMPDH2 (Homo sapiens, UniProt P12268); assay: IMPDH2 enzyme inhibition assay (recombinant protein, absorbance at 340 nm); type: biochemical; conditions: recombinant IMPDH2, IMP and NAD+ substrates, pH 7.2, 37 °C; mean ± SD of three triplicate experiments; read-out: IC50 Inosine-5′-Monophosphate Dehydrogenase (IMPDH2)
T1 construct: made in house; host or cells: Escherichia coli BL21(DE3)
Protocol: The gene encoding IMPDH2 was cloned into the pET-28a vector (Novagen). After the recombinant plasmids were verified by sequencing, the plasmid was transformed into Escherichia coli BL21(DE3) (Invitrogen), which was grown in LB medium at 37 °C to an OD600 (0.8–1.0) and induced by 0.4 mM isopropyl-D-thiogalactopyranoside (IPTG) and grown at 20 °C for 16 h. The cell pellet was harvested and re-suspended in 30 mL buffer (20 mM Tris pH 8.5, 200 mM NaCl, and 10 mM imidazole), followed by disruption on a French press. Cell debris was removed by centrifugation at 21,000 rpm for 30 min. […] The protein was further purified with size exclusion chromatography at 20 mM Tris pH 8.5 and 200 mM NaCl.
The IMPDH2 inhibitory effects of test compounds were measured using the recombinant protein above. The enzyme solution (20 µL, 10 µg/mL), test compounds (10 µL) and buffer (40 µL, 100 mM phosphate buffer, pH 7.2) were pipetted and mixed in a 96-well microtiter plate. The mixture was incubated for 10 min at 37 °C. After incubation, inosine 5′-monophosphate (IMP) substrate solution (30 µL, 2.5 mM) and NAD^+ (30 µL, 5 mM) were added. The reaction can be readily monitored by an increase in optical absorbance at 340 nm. […] The data were imported into Prism (version 5.0, GraphPad) and the IC50 values were calculated by using a standard dose response curve fitting.

[2] = test system: Mouse splenocyte proliferation (T lymphocytes); assay: Immunosuppressive activity: ConA-induced proliferation of mouse splenocytes (T lymphocytes), CCK8; type: cell-based, BALB/c mice; conditions: BALB/c spleen cells, 5 μg/mL ConA, 24 h, mean ± SD of three triplicate experiments
Excerpt: To assess the biological activity of the MPA derivatives, we primarily evaluated their IMPDH2 inhibitory activity with the previously reported enzyme assay method. […] Subsequently, the MPA derivatives were further tested for the in vitro immunosuppressive activity against the proliferation of T lymphocytes. Unsurprisingly, the activity at the cellular level was markedly consistent with their IMPDH2 inhibitory activity.
BALB/c mice were sacrificed by cervical dislocation, and the spleens were removed aseptically. Mononuclear cell suspensions were prepared after cell debris, and clumps were removed. Erythrocytes were depleted with ammonium chloride buffer solution. Lymphocytes were washed and suspended in DMEM medium supplemented with 10% FBS, penicillin (100 U/mL), and streptomycin ([…]). The 5 × 10^5 (150 μL per well) spleen cells in 96-well microtiter plates were cultured at 37 °C in a humidified and 5% CO2-containing incubator for 24 h in the presence or absence of the serious concentrations (ranging from 0.1 to 100 µM) of compounds. The cultures were stimulated with 5 μg/mL of concanavalin A (ConA) to induce T cells proliferative response. After treatment for 24 h, the cell quantity was measured using a CCK8 assay kit according to the manufacturer’s instructions.

COc1c(C)c2c(c(O)c1C/C=C(\C)CCC(=O)N[C@@H](C)C(=O)O)C(=O)OC2 [Compound 10, N-mycophenoyl-L-alanine]
IC50 [1]: 17.5 ± 1.3 µM | IC50 [2]: > 40 µM

COc1c(C)c2c(c(O)c1C/C=C(\C)CCC(=O)O)C(=O)OC2 [MPA (11), Mycophenolic acid, reference compound]
IC50 [2]: 0.96 ± 0.05 µM

COc1c(C)c2c(c(O)c1C/C=C(\C)CCC(=O)NCCCC(=O)O)C(=O)OC2 [Compound 7, 6-[5-(1-carboxy-4-N-carboxylate)-3-methylpent-2-enyl]-7-hydroxy-5-methoxy-4-methylphthalan-1-one]
IC50 [1]: 12.6 ± 1.86 µM | IC50 [2]: 24.6 ± 1.34 µM

COC(=O)CC/C(C)=C/Cc1c(O)c2c(c(C)c1OC)C(O)OC2=O (stereo not drawn) [Compound 4, 6-(5-methoxycarbonyl-3-methylpent-2-enyl)-3,7-dihydroxy-5-methoxy-4-methylphthalan-1-one]
IC50 [1]: 3.27 ± 0.18 µM | IC50 [2]: 9.12 ± 0.38 µM

COc1c(C)c2c(c(O)c1C/C=C(\C)CCC(=O)O)C(=O)OC2OC (stereo not drawn) [Compound 3, 6-(5-carboxy-3-methylpent-2-enyl)-7-hydroxy-3,5-dimethoxy-4-methylphthalan-1-one]
IC50 [1]: 0.84 ± 0.11 µM | IC50 [2]: 2.76 ± 0.13 µM

COc1c(C)c2c(c(O)c1C/C=C(\C)CCC(=O)N[C@H](C(=O)O)C(C)C)C(=O)OC2 [Compound 8, N-mycophenoyl-L-valine]
IC50 [1]: 15.7 ± 1.65 µM | IC50 [2]: 30.6 ± 2.19 µM

COc1c(C)c2c(c(O)c1CCC(C)C(=O)O)C(=O)OC2 (stereo not drawn) [Compound 5, 6-(3-carboxybutyl)-7-hydroxy-5-methoxy-4-methylphthalan-1-one]
IC50 [1]: 24.7 ± 2.74 µM | IC50 [2]: > 40 µM

COc1c(C)c2c(c(O)c1C/C=C(\C)CCC(=O)OCC(O)CO)C(=O)OC2 (stereo not drawn) [Compound 6, 6-[5-(2,3-dihydroxy-1-carboxyglyceride)-3-methylpent-2-enyl]-7-hydroxy-5-methoxy-4-methylphthalan-1-one]
IC50 [1]: 8.59 ± 0.43 µM | IC50 [2]: 19.7 ± 0.89 µM

COc1c(C)c2c(c(O)c1C/C=C(\C)CCC(=O)N[C@@H](Cc1ccccc1)C(=O)O)C(=O)OC2 [Compound 9, N-mycophenoyl-L-phenyloalanine]
IC50 [1]: 23.8 ± 3.54 µM | IC50 [2]: > 40 µM

COCc1c2c(c(O)c(C/C=C(\C)CCC(=O)O)c1OC)C(=O)OC2 [Compound 1, 8-O-methyl mycophenolic acid]
IC50 [1]: 0.92 ± 0.08 µM | IC50 [2]: 4.21 ± 0.2 µM

COc1c(C)c2c(c(O)c1C/C=C(\C)CCC(=O)O)C(=O)OC2O (stereo not drawn) [Compound 2, 3-hydroxy mycophenolic acid]
IC50 [1]: 0.95 ± 0.09 µM | IC50 [2]: 1.23 ± 0.07 µM
